In assay [1] the target is T1, Signal transducer and activator of transcription 6 (Homo sapiens, UniProt P42226).
T1 sequence (P42226 whole entry): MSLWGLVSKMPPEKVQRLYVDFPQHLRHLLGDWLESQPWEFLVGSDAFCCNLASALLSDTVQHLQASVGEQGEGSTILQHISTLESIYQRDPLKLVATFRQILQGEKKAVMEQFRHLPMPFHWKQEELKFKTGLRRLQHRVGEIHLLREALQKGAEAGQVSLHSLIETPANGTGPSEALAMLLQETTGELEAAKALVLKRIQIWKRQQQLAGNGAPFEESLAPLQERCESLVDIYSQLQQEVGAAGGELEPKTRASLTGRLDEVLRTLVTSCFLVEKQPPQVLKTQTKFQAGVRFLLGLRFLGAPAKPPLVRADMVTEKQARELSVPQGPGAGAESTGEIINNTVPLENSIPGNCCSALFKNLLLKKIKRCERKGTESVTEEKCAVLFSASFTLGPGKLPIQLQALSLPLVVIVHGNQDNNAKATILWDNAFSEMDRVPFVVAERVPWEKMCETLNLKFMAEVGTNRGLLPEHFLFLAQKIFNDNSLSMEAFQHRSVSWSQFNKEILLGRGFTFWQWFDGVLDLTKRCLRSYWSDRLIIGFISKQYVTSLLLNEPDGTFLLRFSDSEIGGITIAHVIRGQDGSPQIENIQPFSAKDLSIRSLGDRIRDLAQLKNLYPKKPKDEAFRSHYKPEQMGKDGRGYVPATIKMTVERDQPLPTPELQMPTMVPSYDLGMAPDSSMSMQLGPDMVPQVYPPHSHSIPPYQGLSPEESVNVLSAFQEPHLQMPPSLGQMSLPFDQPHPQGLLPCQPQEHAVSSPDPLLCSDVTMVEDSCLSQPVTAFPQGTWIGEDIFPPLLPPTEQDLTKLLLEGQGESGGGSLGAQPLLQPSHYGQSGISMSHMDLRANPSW
Kind of assay: Inhibition of IL-4 induced STAT6 signaling in human HepG2 cells harboring pRL-EF1alpha, pGL3-TK-7xN4 and TOPO-Stat6 plasmid assessed as luciferase activity incubated for 24 hrs. In kind it is cell-based.

Assay [2] addresses Mothers against decapentaplegic homolog 2/homolog 3 (Homo sapiens, UniProt P84022+Q15796). Kind of assay: Inhibition of TGF-beta induced Smad2/3 signaling in human HepG2 cells harboring pRL-EF1alpha, (CAGA)9x-MLP-Luc plasmid assessed as luciferase activity incubated for 24 hrs. It counts as cell-based.

With `C/C1=C\CCC(C)(O)C(C)OC(=O)Cc2c(Cl)c(O)cc(O)c2C1=O` (centres undefined), the IC50 (in general, the concentration at which inhibition is half-maximal) in assay [1] stood at 68 nM.

On to `C/C1=C\C[C@@H](O)[C@H](C)[C@@H](C)OC(=O)Cc2c(Cl)c(O)cc(O)c2C1=O`, for which the IC50 in assay [1] worked out at 56 nM.

For `C/C1=C\CCC(C)(C)C(C)OC(=O)Cc2c(Cl)c(O)cc(O)c2C1=O` (centres undefined), the half-inhibitory concentration (IC50) in assay [1] worked out at 79 nM.

Turning to `C/C1=C\CC[C@H](C)[C@@H](C)OC(=O)Cc2c(Cl)c(O)cc(O)c2C1=O`, the IC50 in assay [1] was 20 nM.

With `C/C1=C\C[C@@H](O)[C@H](C)[C@H](C)OC(=O)Cc2c(Cl)c(O)cc(O)c2C1=O`, the IC50 in assay [2] was 240 nM.

Turning to `C/C1=C/C[C@@H](O)[C@H](C)[C@@H](C)OC(=O)Cc2c(Cl)c(O)cc(O)c2C1=O`, the IC50 in assay [2] came out at 100 nM.

Regarding `C/C1=C\C[C@H](O)[C@H](C)[C@@H](C)OC(=O)Cc2c(Cl)c(O)cc(O)c2C1=O`, in assay [2], the IC50 came out at 68 nM.

On to `C/C1=C\C[C@H](O)[C@H](C)[C@H](C)OC(=O)Cc2c(Cl)c(O)cc(O)c2C1=O`, for which the IC50 in assay [2] stood at 140 nM.

For `C/C1=C/C[C@H](O)[C@H](C)[C@@H](C)OC(=O)Cc2c(Cl)c(O)cc(O)c2C1=O`, in assay [2], the IC50 turned out to be 68 nM.

The record behind these values is ChEMBL document CHEMBL5335851, “Total Synthesis, Structure Reassignment, and Biological Evaluation of the Anti-Inflammatory Macrolactone 13-Hydroxy-14-deoxyoxacyclododecindione” (J Nat Prod, 2024).
